The results in this text go back to patent US8518889B2, “Method of treating cancer with antibodies against long-form leukotriene B4 receptor BLT2” (Korea University Research & Business Foundation, priority 2007, dated 2013).

Assay [1] deals with VEGF-induced angiogenesis. In words: VEGF-induced angiogenesis (Matrigel plug, HUVEC tube formation and transmigration). Details: species or system FVB mice. The settings on record: mouse, in vivo. Here is the method:
FVB wild-type mice or BLT2 TG mice (female, 8-10 wk old) were subcutaneously injected with 400 μl of growth factor-reduced Matrigel from BD Biosciences containing heparin (20 units) and the agents to be tested. After 7 days, the mice were killed, and the solidified Matrigel was excised, fixed in 10% formalin, embedded in paraffin, cut into 5-μm sections and stained with anti-vWF antibody according to the manufacturer's instructions in the Blood Vessel Staining Kit (Chemicon). Each stained Matrigel section was photographed using a BX51 microscope equipped with a DP71 digital camera (Olympus), and the area of vWF-positive blood vessels was calculated using Image J software.
Growth factor-reduced Matrigel (300 μl; BD Biosciences, San Diego, Calif.) was added to each 24-well plate and polymerized for 12 h at 37° C. […] After 12 hr, five randomly selected areas were photographed using a CKX41 microscope equipped with a DP71 digital camera, and tube lengths were measured and quantified using Image J software, the image processing program developed at the U.S. National Institutes of Health (NIH). […]
The cells were then allowed to migrate to the lower side of the chambers, which contained LTB4, 12(S)-HETE or VEGF. […] Cell migration was quantified by counting the cells on the lower side of the filter after they were photographed using a CKX41 microscope equipped with a DP71 digital camera. […]

In assay [2] the test system is 253J-BV bladder cancer cell. Nature of the assay: mitochondrial membrane potential (JC-1, flow cytometry). Format: cell-based, human. The conditions noted are these: 48 hr. The method, then: Mitochondrial damage is important to the apoptosis affected by the caspase-9 pathway. To evaluate the effect of LY255283 on the mitochondria membrane potential (MMP), cell were pretreated with the fluorescent mitochondria specific cationic dye, JC-1, and changes in membrane potential were measured by flow cytometry. Cells grown in 6 well-plates for 24 hr washed PBS and incubated in RPMI 1640 with 0.5% FBS containing different concentrations of LY255283 and U75302 for 48 hr. After cells were treated with 5 μg/ml of JC-1 for 30 min. Then removal of JC-1, washed with PBS, harvested by trypsinization, and resuspended in PBS. Sample was measured at 530 nm (FL-1 green) and 590 nm (FL-2 red) using a flow cytometry. […] And because of the loss of mitochondrial membrane potential in a LY255283 treated cells, it was speculated that caspase may play an essential role in the process of apoptosis.

The test system of assay [3] is 253J-BV cell (bladder cancer cell). Nature of the assay: morphological changes by light microscopy. It is filed as cell-based, human. The conditions noted are these: 1-10 μM, 48 hr. The method, then: Bladder cancer cells grown in 6 well-plate were treated with 10 μM LY255283, 1 uM U75302 for 48 hr. Cells were then viewed using light microscopy (×100). SV-HUC-1 cell (normal bladder cell) and 253J-BV cell (bladder cancer cell) were treated with different concentrations (1-10 μM) of LY255283 (BLT2 specific antagonist), U75302 (BLT1 specific antagonist) for 48 hr. […] But normal bladder cell line was not effect on morphological change treated with BLT antagonists.

The next assay has as its system MDA-MB-468 cells. Nature of the assay: DAPI staining, apoptotic cells. It is filed as cell-based, human. The settings on record: 2, 5, 10 μM, 48 h. Here is the method: Cells were grown on sterile coverslips at a density of 7×10^5 cells/plate in 35-mm plate. After 24 h, cells incubated in media containing serum-free for 3 h. Then, cells were treated with U75302 (0.5, 1 μM), LY255283 (5, 10 μM) and incubated at 37° C. for 48 h. Then, cells were fixed with 70% cold-ethanol for 30 min at room temperature, and then washed once with PBS. DAPI (50 ng/ml) was added to the fixed cells, incubated for 20 min at room temperature, and washed with PBS. Cells were mounted and examined by fluorescence microscopy. Apoptotic cells were identified by the condensation and fragmentation of their nuclei. The percentage of apoptotic cells was calculated as the ratio of apoptotic cells to total cells counted. A minimum of 500 cells were counted for each treatment.

Consider `CCc1cc(C(C)=O)c(O)cc1OCCCCCC(C)(C)c1nnn[nH]1` [LY255283, 1-[5-ethyl-2-hydroxy-4-[[6-methyl-6-(1H-tetrazol-5-yl)heptyl]oxy]phenyl]-ethanone], for which the VEGF-induced angiogenesis entry in assay [1] is “suppressed VEGF-induced angiogenesis”. The mitochondria potential entry in assay [2] (10 μM) is reported as “drop in mitochondria potential”. For the same molecule, the “increase of green fluorescence (FL-1) compare with control cells” value in assay [2] (JC-1, 10 μM) was “about 2.5 fold”. In addition, the morphological change result in assay [3] was “exhibited membrane blebbing, detached from plate”. Further, the “apoptosis (DAPI staining)” value with MDA-MB-468 cells is “induces apoptosis via a dose-dependent manner”.
